Broadly, the Ki is a measure of affinity in units of concentration, obtained from inhibition or displacement.

Like-named read-outs stand apart in the source and are kept apart here.

The source of these data is patent publication US11497731B2, “β-lactamase inhibitor” (NATIONAL UNIVERSITY CORPORATION TOKAI NATIONAL HIGHER …, priority 2018, dated 2022).

Data set [1] concerns the target VIM-2 (Escherichia coli, UniProt Q5U7L7). As to the kind of experiment: Inhibition constant (Ki) measurement test, VIM-2. The class given is biochemical. Here is the method:
(§1) The inhibition constant (Ki) measurement test was performed in the following manner. The inhibition constant (Ki) was measured using various metallo-β-lactamases (final concentration: 10 nM). The imipenem decomposition activity (Δabs/min) at each point under the conditions of absorbance: 298 nm and temperature: 30° C. was measured by varying the concentration of imipenem as a substrate and the concentrations of test substances (compounds A to E) as inhibitors. Each measured value was fitted to the Lineweaver-Burk plot equation to calculate Ki.
(§2) The test was performed in the same manner as in Test Example 6, except that X2a, X2b, X2c, X2d, X3a, and X4 were used as test substances (inhibitors).

A short description of data set [2]: Reverse mutation test (Ames test). The class given is cell-based. As to conditions: entrusted to UBE Scientific Analysis Laboratory, Inc. The text has this: Compound A was used as a test substance.
(In general: The Ames test detects mutagens through reverse mutation in bacteria.)

For data set [3], the target named is NDM-1 (Klebsiella pneumoniae, UniProt C7C422). Description: Inhibition constant (Ki) measurement test, NDM-1. The class given is biochemical. The method, then:
as §1, §2

Data set [4] concerns strains of Enterobacteriaceae bacteria that produce class B β-lactamases. As to the kind of experiment: Drug susceptibility test 2. The class given is cell-based. As to conditions: addition of compound A.
The test system of data set [5] is HeLa cells. As to the kind of experiment: Toxicity evaluation test (MTT assay). The class given is cell-based. The note with it: various concentrations. Here is the method:
Various concentrations of a test substance (compound A) or staurosporine were added to HeLa cells, and live cells were counted using an MTT assay kit (Promega Cat No. G4000).

Data set [6] concerns class B β-lactamase (IMP-1, NDM-1, or VIM-2). Description: β-Lactamase inhibitory activity measurement test (imipenem decomposition). The note with it: test substance 0, 1, 10, 100 μM; enzyme 10 nM; imipenem 100 μM. The data set is classed as biochemical. The method, then: Each individual class B β-lactamase (IMP-1, NDM-1, or VIM-2; final concentration: 10 nM), imipenem (final concentration: 100 μM), and each individual test substance (compound A or compound Z shown below; final concentrations: 0, 1, 10, 100 μM) were mixed in an HEPES buffer. The imipenem decomposition activity (Dabs/min) under the conditions of absorbance: 298 nm and temperature: 30° C. was measured. The imipenem decomposition activity when no test substance was added was defined as 100%, and the imipenem residual decomposition activity when each test substance was individually added was plotted.

The test system of data set [7] is bacteria into which a plasmid encoding NDM-1 was introduced (pBCSK (+)/E. coli DH5a). Description: Drug susceptibility test (MIC), NDM-1-producing strain. The data set is classed as cell-based. The note with it: for MIC: Escherichia coli. The method, then:
(§3) Plates for drug susceptibility test measurement were prepared by using 96- or 384-well U-bottom plates, a Mueller-Hinton liquid medium, and antimicrobial drugs (ceftazidime (CAZ), imipenem (IPM), meropenem (MPM), doripenem (DPM), and biapenem (BPM)). A 1/2 antimicrobial drug dilution series was made up to well 11 of, for example, a 96-well U-bottom plate so that the leftmost well 1 of row A contained an antimicrobial drug at the maximum concentration, the antimicrobial drug concentration in well 2 to the right of well 1 was 1/2 of the maximum concentration, the antimicrobial drug concentration in well 3 to the right of well 2 was 1/4 of the maximum concentration, and so on. […] An antimicrobial drug dilution series was made in each of rows B and C in the same manner as in row A. Further, 10 μg/mL and 50 μg/mL of a test substance (compound A) were added to row B and row C, respectively (FIG. 1).
(§4) Bacteria into which a plasmid encoding a class B β-lactamase (metallo-β-lactamase (MBL): NDM-1, or VIM-2) was introduced (pBCSK (+)/E. coli DH5a) were used as test bacteria. The test bacteria were adjusted to 10^8 cfu/mL with a Mueller-Hinton medium. Further, the test bacteria were diluted 10-fold with a Mueller-Hinton medium (10^7 cfu/mL). 5 μl of the test bacteria was collected and inoculated into the plates for drug susceptibility test measurement. After overnight culture at 35° C., the growth of the test bacteria was visually checked. The concentration of the antimicrobial drug in a well containing the lowest concentration of the antimicrobial drug among the wells in which no growth of the test bacteria was confirmed was defined as the minimal inhibitory concentration value (FIG. 1).
(§5) The drug susceptibility test was performed in the same manner as in Test Example 1, except that compounds A to C and E to I were used as test substances.
(§6) The test was performed in the same manner as in Test Example 1, except that X2a, X2b, X2c, X2d, X3a, and X4 were used as test substances (inhibitors). The inhibitor concentration was 10 μg/mL.

Data set [8] concerns β-lactamase-producing bacteria. As to the kind of experiment: Drug susceptibility tests, summary statements over all strains. The class given is cell-based, E. coli. The note with it: addition of the compound. The method, then:
as §3, §4

Data set [9] addresses IMP-1 (Serratia marcescens, UniProt P52699). Description: Inhibition constant (Ki) measurement test, IMP-1. The class given is biochemical. Here is the method:
as §1, §2

The subject of data set [10] is strain of Escherichia coli in which a plasmid encoding a class B β-lactamase (IMP-1) was introduced. As to the kind of experiment: Mouse abdominal infection model, E. coli IMP-1 strain. The data set is classed as in vivo, mice. Here is the method:
After mice were infected with a laboratory strain (a strain of Escherichia coli in which a plasmid encoding a class B β-lactamase (IMP-1) was introduced), a test substance (compound A) was administered; and survival was observed. Specifically, the animal study was performed as follows.
The laboratory strain grown overnight on a Mueller-Hinton agar medium was scraped with a sterile swab, suspended in physiological saline, adjusted to 2-5×10^8 CFU/mL, and mixed with an equal amount of a 10% mucin solution (1-2.5×10^8 CFU/mL) to prepare a bacterial liquid. Mice (Crl:CD1(ICR), male, 4 weeks old (Charles River Laboratories Japan, Inc.)) acclimated for 4 days after arrival were weighed, and then infected by intraperitoneal administration of 250 μL of the prepared bacterial liquid per mouse. An antimicrobial drug (meropenem trihydrate (WAKO 137-15674)) and the test substance were dissolved in physiological saline. A first intraperitoneal administration of the antimicrobial drug (0.2 mg/kg) and/or the test substance (100 mg/kg) was performed 1 hour after infection. A second administration was performed 3 hours after infection, in the same manner as the first administration (up to this point, day 0). […]

In data set [11] the test system is strains of Acinetobacter that produce class B β-lactamases. Description: Drug susceptibility test 3. The class given is cell-based. As to conditions: addition of compound A.
Data set [12] has as its system bacteria into which a plasmid encoding VIM-2 was introduced (pBCSK (+)/E. coli DH5a). Description: Drug susceptibility test (MIC), VIM-2-producing strain. The data set is classed as cell-based. The note with it: for MIC: Escherichia coli. Here is the method:
as §3, §4, §5, §6

For data set [13], the system named is Empty vector (no class B lactamase produced), pBCSK (+)/E. coli DH5a. Description: Drug susceptibility test (MIC), empty vector strain. The data set is classed as cell-based. As to conditions: Escherichia coli.
The test system of data set [14] is bacteria (K. pneumoniae) in which a plasmid encoding NDM and VIM was introduced. As to the kind of experiment: Mouse abdominal infection model, K. pneumoniae NDM and VIM strain. The class given is in vivo, mice. The note with it: test substance 10 mg/kg. The method, then: The laboratory strain grown overnight on a Mueller-Hinton agar medium was scraped with a sterile swab, suspended in physiological saline, adjusted to 2-5×10^8 CFU/mL, and mixed with an equal amount of a 10% mucin solution (1-2.5×10^8 CFU/mL) to prepare a bacterial liquid. Mice (Crl:CD1(ICR), male, 4 weeks old (Charles River Laboratories Japan, Inc.)) acclimated for 4 days after arrival were weighed, and then infected by intraperitoneal administration of 250 μL of the prepared bacterial liquid per mouse. An antimicrobial drug (meropenem trihydrate (WAKO 137-15674)) and the test substance were dissolved in physiological saline. A first intraperitoneal administration of the antimicrobial drug (0.2 mg/kg) and/or the test substance (100 mg/kg) was performed 1 hour after infection. A second administration was performed 3 hours after infection, in the same manner as the first administration (up to this point, day 0).
The animal study was performed in the same manner as in Test Example 12, except that in addition to a strain of Escherichia coli in which a plasmid encoding a class B lactamase (IMP-1) was introduced, bacteria (K. pneumoniae) in which a plasmid encoding NDM and VIM was introduced were used as a laboratory strain, compound I was administered as a test substance, […], and the dosage of the test substance was 10 mg/kg. […]

In data set [15] the test system is bacteria into which a plasmid encoding IMP-1 was introduced (pBCSK (+)/E. coli DH5a). Description: Drug susceptibility test (MIC), IMP-1-producing strain. The note with it: MIC of meropenem with inhibitor 10 μg/mL. The data set is classed as cell-based.
Data set [16] relates to β-lactamase. As to the kind of experiment: Inhibition constant (Ki) tests, summary statements over all enzymes. The data set is classed as biochemical. Here is the method:
as §1, §2

Where [17] appears, read: imipenem substrate, enzyme 10 nM, 30° C., Lineweaver-Burk, read-out: Inhibition constant Ki VIM-2.
Setting [18] is: imipenem substrate, enzyme 10 nM, 30° C., Lineweaver-Burk, read-out: Inhibition constant Ki NDM-1.
The mark [19] stands for this setting: read-out: MIC CAZ + compound A (10 μg/ml).
[20] abbreviates: read-out: MIC CAZ + compound A (50 μg/ml).
Setting [21] is: read-out: MIC MPM + compound A (10 μg/ml).
[22] abbreviates: imipenem substrate, enzyme 10 nM, 30° C., Lineweaver-Burk, read-out: Inhibition constant Ki IMP-1.
Where [23] appears, read: read-out: MIC MPM + compound A (50 μg/ml).

Chain of IMP-1 (P52699 19-246, looked up, species assumed): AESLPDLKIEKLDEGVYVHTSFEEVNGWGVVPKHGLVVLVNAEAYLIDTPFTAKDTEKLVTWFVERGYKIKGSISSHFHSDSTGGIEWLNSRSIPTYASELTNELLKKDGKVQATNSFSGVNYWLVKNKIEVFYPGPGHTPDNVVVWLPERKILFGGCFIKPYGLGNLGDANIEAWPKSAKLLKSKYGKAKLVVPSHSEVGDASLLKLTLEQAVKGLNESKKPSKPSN
Chain of NDM-1 (C7C422 29-270, looked up, species assumed): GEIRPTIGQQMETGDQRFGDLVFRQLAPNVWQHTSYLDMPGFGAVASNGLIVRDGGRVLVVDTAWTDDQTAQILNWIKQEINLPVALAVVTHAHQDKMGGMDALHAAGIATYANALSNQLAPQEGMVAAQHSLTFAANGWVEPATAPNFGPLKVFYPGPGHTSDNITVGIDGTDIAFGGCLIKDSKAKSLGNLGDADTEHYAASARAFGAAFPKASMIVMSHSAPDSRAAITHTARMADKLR

Consider `Cc1oc(C)c(S(N)(=O)=O)c1C(=O)O` [Compound A], for which the Ki in data set [1] (setting [17]) is 2800 nM; in data set [3] (setting [18]), 9820 nM; in data set [9] (setting [22]), 220 nM. In addition, the Ames test result in data set [2] is listed as “negative”. For the same molecule, the “effect on MICs of the antimicrobial drugs (FIG. 3)” value in [4] is “decreases the MICs”. Besides, the “toxicity (live cells, MTT, FIG. 9)” value in data set [5] is listed as “very low”. In data set [6], the “β-lactamase inhibition (imipenem residual decomposition activity, FIG. 2)” value is on record as “inhibit β-lactamases”. Further, the MIC in [7] (setting [19]) turned out to be 256 µg/mL; in data set [7] (setting [20]), 64 µg/mL; in [7] (setting [21]), 0.25 µg/mL; in data set [12] (setting [19]), 1 µg/mL; in data set [12] (setting [21]), 0.031 µg/mL; in data set [12] (setting [23]), 0.031 µg/mL. Besides, the MIC was found to be 0.25 µg/mL in data set [13] (setting [19]), 0.25 µg/mL in data set [13] (setting [20]), 0.016 µg/mL in data set [13] (setting [21]) and 0.016 µg/mL in data set [13] (setting [23]). Moreover, the “effect on MICs of the antimicrobial drugs (statement on Tables 1, 2, 4)” value in data set [8] is given as “decreases the MICs”. For the same molecule, the “survival rate (FIG. 10)” value in data set [10] (meropenem 0.2 mg/kg and test substance 100 mg/kg intraperitoneal, 1 and 3 hours after infection) was “notably improved”. Also, the “effect on MICs of the antimicrobial drugs (FIG. 4)” value in data set [11] is “decreases the MICs”.

On to `CCc1c(C(=O)O)c(S(N)(=O)=O)c(CC)n1C` [Compound I], for which the Ki in [1] (setting [17]) amounted to 20 nM; in data set [3] (setting [18]), 840 nM; in [9] (setting [22]), 2140 nM. The “survival rate (FIG. 12)” value in data set [14] (antimicrobial drug 0.8 mg/kg or 4 mg/kg) is on record as “notably improved”. Besides, the “survival rate (FIG. 11)” value in data set [10] (antimicrobial drug 0.8 mg/kg or 4 mg/kg, test substance 10 mg/kg) is on record as “notably improved”.

For the molecule `CCc1c(S(N)(=O)=O)c(C(=O)O)c(-c2ccccc2)n1C` [Compound X2d], the Ki in data set [1] (Test Example 11, same manner as Test Example 6, read-out: Enzymatic Inhibition Effect Ki VIM-2) stood at 33 nM; in data set [3] (Test Example 11, same manner as Test Example 6, read-out: Enzymatic Inhibition Effect Ki NDM-1) it was 80 nM; in [9] (Test Example 11, same manner as Test Example 6, read-out: Enzymatic Inhibition Effect Ki IMP-1) it was 110 nM. Further, the “survival rate (FIG. 13)” value in data set [14] (antimicrobial drug 2 mg/kg or 8 mg/kg) was “notably improved”. Further, the “Meropenem MIC NDM-1-producing strain” value in [7] (MIC of meropenem with inhibitor 10 μg/mL) came to 0.0625 µg/mL. In addition, in data set [15], the “Meropenem MIC IMP1-producing strain” value is 0.031 µg/mL. The “effect on MICs of the antimicrobial drugs (statement on Tables 1, 2, 4)” value in data set [8] is on record as “decreases the MICs”. Further, in data set [16], the “β-lactamase activity inhibition (statement on Tables 2, 5)” value is “inhibits β-lactamase activity”. In data set [12] (MIC of ceftazidime with inhibitor 10 μg/mL), the “Ceftazidime MIC VIM-2-producing strain” value amounted to 1 µg/mL.
